Patent US10654868B2, “Dihydropyrazole azepine compound serving as Akt inhibitor” (HARBIN ZHENBAO PHARMACEUTICAL CO., LTD., priority 2016, dated 2020)

How the values were obtained:
Akt3 = target: T1, Akt3 (Homo sapiens, UniProt Q9Y243); test: Akt3 kinase inhibition, LANCE TR-FRET; assay type: biochemical; conditions: Akt3 2 nM, ATP 160 uM, 90 min at room temperature
T1 construct: purchased life technology lot 1715050B (lot number only, catalogue number not given)
Description: (§1) Study 1: The Inhibitory Effect of the Compounds on the Activity of Akt1, Akt2 and Akt3
Akt3 protein (life technology # lot 1715050B)
(§2) In this experiment, a homogeneous time-resolved fluorescence […] energy transfer (LANCE TR-FRET®) method was used. In the assay plate, enzymes, biotinylated polypeptide substrates and compound to be tested were mixed, and ATP was added to initiate the reaction and the mixture was incubated. After that, EDTA was added to terminate the reaction while an Eu-labeled antibody was added to carry out the reaction and the reaction was then detected. The assay plate was analyzed by PE company's Envision, and the analysis mode was TR-FRET. The data were represented by fluorescence signals at 665 nm and 615 nm, respectively.
(§3) Compound formulation: compound to be tested and the reference compound were diluted with 100% DMSO, the initial concentration of the compound was 10 uM, and diluted by 10 times in a 3-fold gradient. Transfer the compound to the cell plate and duplicate each well.
(§4) Kinase assay: the enzyme and substrate were mixed with different concentrations of pre-diluted compounds. […] Leave at room temperature for 15 min and diplicate each concentration. ATP was added, and the final concentrations were 36 uM, 360 uM and 160 uM in Akt1, Akt2, and Akt3 kinase reactions, respectively, and the reaction was carried out for 90 min at room temperature (in which negative and positive controls were set). After the reaction was completed, the antibody was added and the mixture was detected, and the cells were incubated for 60 min at room temperature, and then collected by Evnvision. Data analysis and fitting according to *Lfit5 software.

Akt2 = target: T2, Akt2 (Homo sapiens, UniProt P31751); test: Akt2 kinase inhibition, LANCE TR-FRET; assay type: biochemical; conditions: Akt2 2 nM, ATP 360 uM, 90 min at room temperature
T2 construct: purchased life technology lot 28870GG (lot number only, catalogue number not given)
Description: as §1
Akt2 protein (life technology # lot 28870GG)
as §2, §3, §4

LNCaP cells = test: LNCaP cell activity, CellTiter-Glo live cell detection; assay type: cell-based; conditions: Homo sapiens, 72 h, 1000 cells per well, incubated 3 days, starting concentration 10 uM
Description: Study 2: inhibitory effects of compounds on LNCaP cell activity
The amount of ATP directly reflects the number and the state of the cells, and the number of live cells can be detected by quantitatively measuring ATP. The live cell assay kit contains luciferase and its substrate. Through the participation of ATP, luciferase can catalyze the substrate, emit a stable optical signal, and the amount of ATP in the cell was determined by detecting the intensity of the signal. Wherein, the optical signal is proportional to the amount of ATP in the cell, and ATP is positively correlated with the number of live cells, so that the cell proliferation can be detected. The assay board is analyzed by PE company's Envision.
LNCaP cell was separately seeded in a 384-well plate, each well contains 1000 cells. The cell plate was placed in a carbon dioxide incubator and incubated overnight.
A duplicated experiment was performed with 10 concentrations of compound in a 3-fold dilution with Bravo.
Compound was transferred to the cell plate with a starting concentration of 10 uM. The cell plate was incubated in a carbon dioxide incubator for 3 days.
The Promega CellTiter-Glo reagent was added to the cell plate and incubated for 10 min at room temperature to stabilize the optical signal. Read the data by a PerkinElmer Envision multi-label analyzer.

Akt1 = target: T3, Akt1 (Homo sapiens, UniProt P31749); test: Akt1 kinase inhibition, LANCE TR-FRET; assay type: biochemical
T3 construct: purchased life technology lot11629928C (lot number only, catalogue number not given)
Description: as §1
Akt1 protein (life technology # lot11629928C)
as §2, §3, §4

T1 sequence (Q9Y243 whole entry): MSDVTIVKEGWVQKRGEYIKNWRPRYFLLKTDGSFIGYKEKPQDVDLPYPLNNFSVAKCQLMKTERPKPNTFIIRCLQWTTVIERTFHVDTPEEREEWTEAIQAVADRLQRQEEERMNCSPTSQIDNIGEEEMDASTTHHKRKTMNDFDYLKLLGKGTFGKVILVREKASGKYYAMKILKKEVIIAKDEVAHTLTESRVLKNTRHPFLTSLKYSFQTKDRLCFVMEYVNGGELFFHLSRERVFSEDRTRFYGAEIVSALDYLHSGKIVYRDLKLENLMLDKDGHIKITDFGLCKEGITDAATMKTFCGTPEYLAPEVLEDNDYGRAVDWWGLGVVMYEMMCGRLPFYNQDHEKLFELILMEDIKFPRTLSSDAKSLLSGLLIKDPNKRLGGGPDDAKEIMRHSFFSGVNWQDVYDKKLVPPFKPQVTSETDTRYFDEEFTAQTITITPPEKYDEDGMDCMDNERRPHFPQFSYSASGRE
T2 sequence (P31751 whole entry): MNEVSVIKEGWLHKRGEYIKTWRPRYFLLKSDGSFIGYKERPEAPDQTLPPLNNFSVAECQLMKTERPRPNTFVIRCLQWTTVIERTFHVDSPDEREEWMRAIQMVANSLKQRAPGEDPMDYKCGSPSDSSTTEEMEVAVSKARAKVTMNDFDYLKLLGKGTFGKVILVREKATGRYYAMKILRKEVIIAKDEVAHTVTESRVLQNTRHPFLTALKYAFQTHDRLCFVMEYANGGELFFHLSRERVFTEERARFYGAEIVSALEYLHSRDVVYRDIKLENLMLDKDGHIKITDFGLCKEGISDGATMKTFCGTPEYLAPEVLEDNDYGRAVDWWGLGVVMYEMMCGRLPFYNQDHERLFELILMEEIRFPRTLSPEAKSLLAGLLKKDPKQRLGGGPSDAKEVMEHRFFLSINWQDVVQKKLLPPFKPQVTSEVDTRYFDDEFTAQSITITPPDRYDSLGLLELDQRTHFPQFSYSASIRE
T3 sequence (P31749 whole entry): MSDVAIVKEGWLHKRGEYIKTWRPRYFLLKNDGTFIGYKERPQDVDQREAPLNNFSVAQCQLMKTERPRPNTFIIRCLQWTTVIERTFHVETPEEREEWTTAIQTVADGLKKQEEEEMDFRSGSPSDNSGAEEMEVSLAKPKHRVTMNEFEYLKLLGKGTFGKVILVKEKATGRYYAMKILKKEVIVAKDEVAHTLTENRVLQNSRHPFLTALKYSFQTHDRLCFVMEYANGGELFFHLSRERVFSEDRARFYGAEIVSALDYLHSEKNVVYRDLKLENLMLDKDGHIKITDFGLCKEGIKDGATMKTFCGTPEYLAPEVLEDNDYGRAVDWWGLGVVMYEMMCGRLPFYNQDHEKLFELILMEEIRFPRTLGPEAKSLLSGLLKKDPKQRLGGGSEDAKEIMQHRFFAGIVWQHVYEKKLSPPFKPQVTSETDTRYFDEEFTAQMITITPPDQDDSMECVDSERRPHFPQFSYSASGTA

Structure (SMILES) | IC50 (Akt3) [nM] | IC50 (Akt2) [nM] | IC50 (LNCaP cells) [nM] | IC50 (Akt1) [nM]
NC[C@H](Cc1cccnc1)NC(=O)c1cc2c(s1)CCCn1ncc(Cl)c1-2 [Embodiment 2] | 294 | 266 | 666 | 6.64
NC[C@H](Cc1ccncc1)NC(=O)c1cc2c(s1)CCCn1ncc(Cl)c1-2 [Embodiment 3] | 1130 | 163 | 2010 | 39
NC[C@H](Cc1ccc(F)cc1F)NC(=O)c1cc2c(s1)CCCn1ncc(Cl)c1-2 [Embodiment 5] | 77 | 77 | 199 | 2.54
NC[C@H](Cc1ccccc1F)NC(=O)c1cc2c(s1)CCCn1ncc(Cl)c1-2 [Embodiment 6] | 95 | 101 | 297 | 3.78
NC[C@H](Cc1ccc(Cl)cc1)NC(=O)c1cc2c(s1)CCCn1ncc(Cl)c1-2 [Embodiment 8] | 69 | 107 | 534 | 3.62
NC[C@H](Cc1ccc(Cl)c(Cl)c1)NC(=O)c1cc2c(s1)CCCn1ncc(Cl)c1-2 [Embodiment 9] | 44 | 25 | 236 | 1.39
NC[C@H](Cc1cccc(C(F)(F)F)c1)NC(=O)c1cc2c(s1)CCCn1ncc(Cl)c1-2 [Embodiment 11] | 80 | 66 | 287 | 2.28
CN(C)C[C@H](Cc1cccc(F)c1)NC(=O)c1cc2c(s1)CCCn1ncc(Cl)c1-2 [Embodiment 12] | 867 | 4830 | 4890 | 116
NC[C@@H](NC(=O)c1cc2c(s1)CCCn1ncc(Cl)c1-2)c1ccccc1 [Embodiment 13] | 189 | 188 | 514 | 11
NC[C@H](Cc1cccc(F)c1F)NC(=O)c1cc2c(s1)CCCn1ncc(Br)c1-2 [Embodiment 16] | 45 | 45 | 233 | 0.85

These reach a lower IC50 (Akt3). Values come first.

IC50 (Akt3) [nM] | IC50 (Akt2) [nM] | IC50 (LNCaP cells) [nM] | IC50 (Akt1) [nM] | Structure (SMILES)
21 | 24 | 58 | 0.36 | NC[C@H](Cc1cccc(F)c1)NC(=O)c1cc2c(s1)CCCn1ncc(Cl)c1-2 [Embodiment 1]
40 | 32 | 182 | 0.6 | NC[C@H](Cc1cccc(Cl)c1)NC(=O)c1cc2c(s1)CCCn1ncc(Cl)c1-2 [Embodiment 4]
24 | 19 | 59 | 0.71 | NC[C@H](Cc1ccc(F)c(F)c1)NC(=O)c1cc2c(s1)CCCn1ncc(Cl)c1-2 [Embodiment 7]
29 | 17 | 159 | 0.63 | NC[C@H](Cc1ccccc1C(F)(F)F)NC(=O)c1cc2c(s1)CCCn1ncc(Cl)c1-2 [Embodiment 10]
34 | 11 | 36 | 0.33 | NC[C@H](Cc1cccc(F)c1)NC(=O)c1cc2c(s1)CCCn1ncc(Br)c1-2 [Embodiment 14]
16 | 20 | 85 | 0.67 | NC[C@H](Cc1ccc(F)c(F)c1F)NC(=O)c1cc2c(s1)CCCn1ncc(Br)c1-2 [Embodiment 15]
41 | 38 | 230 | 0.68 | NC[C@H](Cc1cc(F)ccc1F)NC(=O)c1cc2c(s1)CCCn1ncc(Br)c1-2 [Embodiment 17]
10 | 8 | 77 | 0.27 | NC[C@H](Cc1ccc(F)c(F)c1)NC(=O)c1cc2c(s1)CCCn1ncc(Br)c1-2 [Embodiment 18]
8.7 | 8 | 23 | 0.03 | NC[C@H](Cc1cc(F)cc(F)c1)NC(=O)c1cc2c(s1)CCCn1ncc(Br)c1-2 [Embodiment 19]
29 | 35 | – | 1.73 | NC[C@H](Cc1ccc(F)c(F)c1)NC(=O)c1cc2c(s1)OCCn1ncc(Br)c1-2 [Embodiment 37]
